Experimental findings from US7265131B2, “Isoquinolinone derivatives and their use as therapeutic agents” (Exelixis, Inc., priority 2002, dated 2007) are described below.

The target of the experiment is T1, LXR α (Homo sapiens, UniProt Q13133).
T1 construct: Co-transfection expression plasmids, comprising full-length LXR α (pCMX-hLXR α); expressed in transfected cells; host or cells: CV-1 African Green Monkey kidney cells, transient transfection
T1 sequence (Q13133 1-447): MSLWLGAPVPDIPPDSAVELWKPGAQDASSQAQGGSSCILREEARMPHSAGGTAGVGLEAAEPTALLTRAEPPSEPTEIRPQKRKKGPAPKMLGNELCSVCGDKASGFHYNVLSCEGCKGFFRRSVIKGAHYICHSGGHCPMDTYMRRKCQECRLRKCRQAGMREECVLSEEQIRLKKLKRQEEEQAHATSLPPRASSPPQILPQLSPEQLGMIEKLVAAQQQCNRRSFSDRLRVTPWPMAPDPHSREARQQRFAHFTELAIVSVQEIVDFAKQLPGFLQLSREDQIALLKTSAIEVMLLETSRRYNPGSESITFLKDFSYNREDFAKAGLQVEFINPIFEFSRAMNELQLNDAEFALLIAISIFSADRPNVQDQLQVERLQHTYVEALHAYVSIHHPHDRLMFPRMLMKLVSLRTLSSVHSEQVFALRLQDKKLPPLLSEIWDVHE
T1 sequence (P19793 1-462 partner): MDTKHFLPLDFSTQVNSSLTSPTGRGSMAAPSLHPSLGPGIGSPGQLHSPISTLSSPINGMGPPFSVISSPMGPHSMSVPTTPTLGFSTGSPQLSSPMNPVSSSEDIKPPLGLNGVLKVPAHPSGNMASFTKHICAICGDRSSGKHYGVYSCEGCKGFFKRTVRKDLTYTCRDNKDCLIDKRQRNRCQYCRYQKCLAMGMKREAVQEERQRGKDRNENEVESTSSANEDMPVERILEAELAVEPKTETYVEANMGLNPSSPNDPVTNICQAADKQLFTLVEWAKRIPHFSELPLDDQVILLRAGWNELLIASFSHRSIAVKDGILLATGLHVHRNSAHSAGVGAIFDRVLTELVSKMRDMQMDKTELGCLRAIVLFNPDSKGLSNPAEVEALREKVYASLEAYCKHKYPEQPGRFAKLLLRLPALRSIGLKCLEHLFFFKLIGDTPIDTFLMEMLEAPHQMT
The experiment in a line: LXR/LXRE co-transfection assay (luciferase reporter, CV-1 cells). Type of experiment: cell-based. The conditions noted are these: for Emax: CV-1, average percent efficacy, relative to control N-(3-((4-fluorophenyl)-(naphthalene-2-sulfonyl)amino)propyl)-2,2-dimethylpropionamide, read-out: % Eff(a); for EC50: average EC50 for agonism, cotransfection assay, CV-1 cells. The text has this: To measure the ability of compounds to activate or inhibit the transcriptional activity of LXR in a cell based assay, the co-transfection assay was used. It has been shown that LXR functions as a heterodimer with RXR. For the co-transfection assay, expression plasmids for LXR and RXR are introduced via transient transfection into mammalian cells along with a luciferase reporter plasmid that contains one copy of a DNA sequence that is bound by LXR-RXR heterodimers (LXRE; Willy, P. et al. 1995). Treatment of transfected cells with an LXR agonist increases the transcriptional activity of LXR, which is measured by an increase in luciferase activity.
1. CV-1 African Green Monkey Kidney Cells
2. Co-transfection expression plasmids, comprising full-length LXR α (pCMX-hLXR α), LXR β (pCMX-hLXR β), or RXR α (pCMX-RXR), reporter plasmid (LXREx1-Tk-Luciferase), and control (pCMX-Galactosidase expression vector) (Willey et al. Genes & Development 9 1033-1045 (1995)).
CV-1 cells were prepared 24 hours prior to the experiment by plating them into T-175 flasks or 500 cm^2 dishes in order to achieve 70-80% confluency on the day of the transfection. The number of cells to be transfected was determined by the number of plates to be screened. Each 384 well plate requires 1.92×10^6 cells or 5000 cells per well. DNA Transfection Reagent was prepared by mixing the required plasmid DNAs with a cationic lipid transfection reagent FuGENE6 (Roche) by following the instructions provided with the reagents. Optimal DNA amounts were determined empirically per cell line and size of vessel to be transfected. 10-12 mL of media was added to the DNA Transfection Reagent and this mixture was added to the cells after aspirating media from the T175 cm^2 flask. Cells were then incubated at least 5 hours at 37° C. to prepare screening cells.
Luciferase assay reagent was prepared by combining before use (per 10 mL):
Assay plates were prepared by dispensing 5 μL of compound per well of a 384 well plate to achieve final compound concentration of 10 μM and no more than 1% DMSO. Media was removed from the screening cells, the cells trypsinized, harvested cells by centrifugation, counted, and plated at a density of approximately 5000 cells per well in the 384 well assay plate prepared above in a volume of about 45 μL. Assay plates containing both compounds and screening cells (50 μL in total volume) were incubated for 20 hours at 37° C.
After incubation with compounds, media was removed from the cells and lysis buffer (30 μuL/well) added. After 30 minutes at ambient temperature, luciferase assay buffer (30 μL/well) was added and the assay plates read on a luminometer (PE Biosystems Northstar reader with on-board injectors, or equivalent). Plates were read immediately after addition of luciferase assay buffer.
The LXR/LXRE co-transfection assay can be used to establish the EC50/IC50 values for potency and percent activity or inhibition for efficacy. Efficacy defines the activity of a compound relative to a high control ((N-(3-((4-fluorophenyl)-(naphthalene-2-sulfonyl)amino)propyl)-2,2-dimethylpropionamide)) or a low control (DMSO/vehicle). The dose response curves are generated from an 8 point curve with concentrations differing by ½ LOG units. Each point represents the average of 4 wells of data from a 384 well plate.
The data from this assay is fitted to the following equation, from the EC50 value may be solved: Y=Bottom+(Top-Bottom)/(1+10^((logEC50-X*HillSlope))
The EC50/IC50 is therefore defined as the concentration at which an agonist or antagonist elicits a response that is half way between the Top (maximum) and Bottom (baseline) values. The EC50/IC50 values represented are the averages of at least 3 independent experiments. […]
A general note: Reporter assays use an easily measured gene product as a stand-in for the process of interest.

As usually defined, the EC50 is the concentration that produces a half-maximal response. High values mean a less potent agent, low ones a more potent agent. For `Cc1ccc(Cn2c(C#CC(C)(C)O)cc3ccccc3c2=O)c(C)c1` [2-(2,4-dimethylbenzyl)-3-(3-hydroxy-3-methylbut-1-ynyl)-2H-isoquinolin-1-one], the Emax lay in the range of 40 to 90% and the EC50 was greater than 0.5 µM.
Consider `Cc1ccc(Cn2c(-c3ccc(Oc4ccccc4)cc3)cc3ccccc3c2=O)c(C)c1` [2-(2,4-dimethylbenzyl)-3-(4-phenoxyphenyl)-2H-isoquinolin-1-one], for which the Emax was greater than 90% and the EC50 lay in the range of 0.01 to 0.15 µM.
Regarding `Cc1cccc(-c2cc3ccccc3c(=O)n2Cc2ccc(C)cc2C)c1` [2-(2,4-dimethylbenzyl)-3-m-tolyl-2H-isoquinolin-1-one], the Emax lay within 40 to 90% and the EC50 lay within 0.15 to 0.5 µM.
For the compound `Cc1ccc(Cn2c(-c3ccsc3)cc3ccccc3c2=O)c(C)c1` [2-(2,4-dimethylbenzyl)-3-thiophen-3-yl-2H-isoquinolin-1-one], the Emax was 40 to 90% and the EC50 was greater than 0.5 µM.
As to `Cc1cccc(-c2cc3ccccc3c(=O)n2Cc2ccccc2)c1` [2-benzyl-3-m-tolyl-2H-isoquinolin-1-one], the Emax was less than 40% and the concentration giving a half-maximal response (EC50) was greater than 0.5 µM.
For `O=c1c2c(Cl)cccc2cc(-c2cc(-c3cc(C(F)(F)F)cc(C(F)(F)F)c3)co2)n1Cc1ccc(F)cc1F` [3-[4-(3,5-bis-trifluoromethylphenyl)furan-2-yl]-8-chloro-2-(2,4-difluorobenzyl)-2H-isoquinolin-1-one], the Emax lay in the range of 40 to 90% and the concentration for a half-maximal effect (EC50) fell in the range of 0.01 to 0.15 µM.
As to `Nc1ccc(-c2coc(-c3cc4cccc(Cl)c4c(=O)n3Cc3ccc(F)cc3F)c2)cc1C(F)(F)F` [3-[4-(4-amino-3-trifluoromethylphenyl)furan-2-yl]-8-chloro-2-(2,4-difluorobenzyl)-2H-isoquinolin-1-one], the Emax was greater than 90% and the EC50 was less than 0.01 µM.
Turning to `O=c1c2c(Cl)cccc2cc(-c2ccc(Oc3ccccc3)cc2)n1Cc1ccc(F)cc1F` [8-chloro-2-(2,4-difluorobenzyl)-3-(4-phenoxyphenyl)-2H-isoquinolin-1-one], the Emax was greater than 90% and the EC50 was in the range of 0.01 to 0.15 µM.
Take `O=c1c2c(Cl)cccc2cc(-c2ccc(Oc3cnccn3)cc2)n1Cc1ccc(F)cc1F` [8-chloro-2-(2,4-difluorobenzyl)-3-[4-(pyrazin-2-yloxy)phenyl]-2H-isoquinolin-1-one]: the Emax was greater than 90% and the EC50 is less than 0.01 µM.
For `CS(=O)(=O)c1ccc(-c2ccc(-c3cc4cccc(Cl)c4c(=O)n3Cc3ccc(F)cc3F)s2)cc1` [8-chloro-2-(2,4-difluorobenzyl)-3-[5-(4-methanesulfonylphenyl)thiophen-2-yl]-2H-isoquinolin-1-one], the Emax was in the range of 40 to 90% and the EC50 lay within 0.01 to 0.15 µM.
Turning to `O=c1c2c(Cl)cccc2cc(-c2ccc(Oc3ccccc3)cc2)n1CC1CCCCC1` [8-chloro-2-cyclohexylmethyl-3-(4-phenoxyphenyl)-2H-isoquinolin-1-one], the Emax is 40 to 90% and the concentration giving a half-maximal response (EC50) lay within 0.01 to 0.15 µM.
Turning to `O=c1c2c(Cl)cccc2cc(-c2ccc(Oc3ccccc3)cc2)n1Cc1cccs1` [8-chloro-3-(4-phenoxyphenyl)-2-thiophen-2-ylmethyl-2H-isoquinolin-1-one], the Emax was in the range of 40 to 90% and the EC50 lay in the range of 0.01 to 0.15 µM.
For `CCOc1ccc(-c2csc(-c3cc4cccc(Cl)c4c(=O)n3Cc3ccc(F)cc3F)c2)cc1Cl` [8-chloro-3-[4-(3-chloro-4-ethoxyphenyl)thiophen-2-yl]-2-(2,4-difluorobenzyl)-2H-isoquinolin-1-one], the Emax is 40 to 90% and the EC50 lay within 0.01 to 0.15 µM.
On to `Cc1ccc(Cn2c(-c3ccc(Oc4ccccc4)cc3)cc3cccc(C)c3c2=O)cc1` [8-methyl-2-(4-methylbenzyl)-3-(4-phenoxyphenyl)-2H-isoquinolin-1-one], for which the Emax lay in the range of 40 to 90% and the EC50 fell in the range of 0.01 to 0.15 µM.
